Experimental data published in publication PMC7724566, “Prospects for Clinical Development of Stat5 Inhibitor IST5-002: High Transcriptomic Specificity in Prostate Cancer and Low Toxicity In Vivo” (Cancers, 2020).

Tests used:
C57BL/6j mice = assay: Sub-chronic toxicity study (10 days), plasma biochemistry; assay type: in vivo; settings: daily i.p. 10 days; for A-G Ratio / ALT / AST / Albumin / Alk.Ptase / Bile Acid / Chol / TBIL / Globulin / BUN: plasma; for Globulin: in g/dL (unit assumed); for BUN: in mg/dL (unit assumed)
Description: The sub-chronic toxicity study (10 days) was carried out in C57BL/6J mice (8 weeks) (stock 000664) (n = 10/dose group 5 of each sex). IST5 was administered daily (0, 10, 30 and 100 mg/kg) via i.p. injection. Vehicle (0 mg/kg) group mice received a single i.p. injection of 0.3% hydroxypropyl cellulose. Plasma samples were analyzed for aspartate aminotransferase (AST), alanine aminotransferase (ALT), sorbitol dehydrogenase (SDH), alkaline phosphatase (ALP), γ-lutamyltransferase (GGT), lactate dehydrogenase (LDH), bilirubin (TBIL), protein (TP), glucose (GLU), blood urea nitrogen (BUN), creatinine (CREAT), and electrolytes (Na, K, Cl, Ca, CO2) (Marshfield Labs, WI, USA). A detailed hematological analysis was carried out on the sub-mandibular blood samples of mice collected at the end of the protocol and analyzed for white blood cells, red blood cells, hemoglobin, lymphocyte counts, monocytes, eosinophils and granulocytes. Brain, liver, heart, kidney and spleen were harvested, weighed and fixed in 10% buffered formalin and processed for histopathological analysis. In histopathological analysis, gross morphology and ultra-structural change were assessed. The clinical chemistry parameters measured were the same as those used for the acute toxicity study.

Stat5 = target: T1, Stat5 (Homo sapiens, UniProt P42229); assay: Native-gel-based Stat5 dimerization assay, CWR22Rv1 cells; assay type: cell-based; settings: 1 µM, 6 h, Prl (10 nM) stimulated CWR22Rv1 cells, STAT5A-eYFP
T1 construct: expressed in transfected cells; host or cells: CWR22Rv1
Source text: Having established that IST5 and IST5-M both interrupt phosphorylation of Stat5, we next investigated the potency of IST5-M vs. IST5 in suppressing dimerization of Stat5 in PC cells. First, we performed a native Polyacrylamide Gel Electrophoresis (PAGE) based Stat5 dimerization assay established originally by Fahrenkamp et al., where CWR22Rv1 cells were transfected with STAT5A-eYFP (Stat5 wild type), STAT5A-N642H-eYFP (constitutive activated Stat5 by N642H mutation, as a positive control) or STAT3-eYFP (Stat3 wild type, as a negative control) constructs for 3 days (Figure 5A). CWR22Rv1 cells were starved for 16 h, pretreated with vanadate (1 mM) for 2 h, followed by treatment with vehicle, IST5 or IST5-M (1 µM) for 6 h and stimulation with Prl (10 nM) for 1 h.
Figure 5 Both IST5 and IST5-M suppress dimerization of Stat5 with similar efficacies in prostate cancer cells. (A), IST5 and IST5-M inhibit equally potently dimerization of Stat5 in native-gel-based Stat5 dimerization assay. […] Dimerization of Stat5 was analyzed by detection of the eYFP fluorescence of the native Coomassie gel. […] (E), differences in posttranslational modifications were detected between native and recombinant STAT5a using mass spectrometry. Native STAT5a from CWR22Rv1 cells and recombinant STAT5a from E. coli were gel-purified, digested using trypsin, and analyzed by bottom-up mass spectrometry. […]

T1 sequence (P42229 whole entry, species assumed): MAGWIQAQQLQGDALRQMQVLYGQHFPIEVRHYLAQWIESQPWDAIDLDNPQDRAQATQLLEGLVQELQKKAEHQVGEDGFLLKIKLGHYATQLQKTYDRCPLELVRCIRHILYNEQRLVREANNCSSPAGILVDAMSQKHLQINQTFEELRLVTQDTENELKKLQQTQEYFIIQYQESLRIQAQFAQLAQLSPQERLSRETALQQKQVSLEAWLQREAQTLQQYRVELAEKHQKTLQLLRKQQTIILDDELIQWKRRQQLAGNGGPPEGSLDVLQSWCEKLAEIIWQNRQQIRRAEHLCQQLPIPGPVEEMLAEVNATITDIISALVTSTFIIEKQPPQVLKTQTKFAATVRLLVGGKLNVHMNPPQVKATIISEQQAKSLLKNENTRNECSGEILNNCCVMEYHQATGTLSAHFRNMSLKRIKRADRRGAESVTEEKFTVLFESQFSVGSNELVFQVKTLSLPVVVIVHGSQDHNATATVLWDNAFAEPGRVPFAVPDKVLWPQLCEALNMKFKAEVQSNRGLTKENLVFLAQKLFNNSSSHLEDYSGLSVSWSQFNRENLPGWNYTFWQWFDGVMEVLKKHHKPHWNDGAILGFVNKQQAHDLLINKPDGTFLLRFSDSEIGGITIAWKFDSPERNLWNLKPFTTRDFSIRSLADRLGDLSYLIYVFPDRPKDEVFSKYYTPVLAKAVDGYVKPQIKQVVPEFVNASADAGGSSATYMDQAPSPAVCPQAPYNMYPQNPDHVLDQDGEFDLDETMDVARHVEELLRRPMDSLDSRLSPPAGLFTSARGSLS

O=P(O)(O)OCC1OC(n2cnc3c(NCc4ccccc4)ncnc32)C(O)C1O (stereo not shown) [IST5]
BW (C57BL/6j mice; 10 mg/kg): 22.5 ± 1.1 gm | HCT (C57BL/6j mice; 10 mg/kg): 0.43 ± 0.02 L/L | A-G Ratio (C57BL/6j mice; 10 mg/kg): 1.93 ± 0.08 | ALT (C57BL/6j mice; 10 mg/kg): 50.4 ± 3.71 U/L | AST (C57BL/6j mice; 10 mg/kg): 329.9 ± 30.9 U/L | Albumin (C57BL/6j mice; 10 mg/kg): 2.69 ± 0.05 g/dL | Alk.Ptase (C57BL/6j mice; 10 mg/kg): 51.3 ± 0.72 U/L | Bile Acid (C57BL/6j mice; 10 mg/kg): 21.0 ± 12.7 µmol/dL | Chol (C57BL/6j mice; 10 mg/kg): 65.0 ± 2.09 mg/dL | TBIL (C57BL/6j mice; 10 mg/kg): 0.26 ± 0.02 mg/dL | Globulin (C57BL/6j mice; 10 mg/kg): 1.41 ± 0.04 | BUN (C57BL/6j mice; 10 mg/kg): 20.5 ± 0.82 | BW (C57BL/6j mice; 30 mg/kg): 23.5 ± 0.6 gm | HCT (C57BL/6j mice; 30 mg/kg): 0.45 ± 0.01 L/L | A-G Ratio (C57BL/6j mice; 30 mg/kg): 1.9 ± 0.11 | ALT (C57BL/6j mice; 30 mg/kg): 45.2 ± 3.76 U/L | AST (C57BL/6j mice; 30 mg/kg): 336 ± 57.1 U/L | Albumin (C57BL/6j mice; 30 mg/kg): 2.74 ± 0.07 g/dL | Alk.Ptase (C57BL/6j mice; 30 mg/kg): 53.0 ± 1.93 U/L | Bile Acid (C57BL/6j mice; 30 mg/kg): 2.39 ± 0.32 µmol/dL | Chol (C57BL/6j mice; 30 mg/kg): 70.3 ± 1.38 mg/dL | TBIL (C57BL/6j mice; 30 mg/kg): 0.21 ± 0.01 mg/dL | Globulin (C57BL/6j mice; 30 mg/kg): 1.47 ± 0.07 | BUN (C57BL/6j mice; 30 mg/kg): 25 ± 1.32 | inhibition of Stat5 dimerization (Stat5): inhibited robustly
